# According to US10023615B2, “Efficient transport into white blood cells” (priority 2008, dated 2018):
# Square brackets hold non-standard residues; d marks the D form. Ends that are not written are not given here.
# Assays:
# [1] = tested on: Monocytes (CD14); assay: Flow cytometry of FITC-transporter content in primary human white blood cells: monocytes; assay type: cell-based; details: 1 uM, 30 min, 37° C.
# Text: (§1) Primary human white blood cells (WBC) were obtained from whole blood after red blood cell lysis. […] Cells containing D-TAT-FITC and r3-L-TAT-FITC were finally analysed by flow cytometry to measure their respective transporter content.
# [2] = tested on: Neutrophils (CD15); assay: Flow cytometry of FITC-transporter content in primary human white blood cells: neutrophils; assay type: cell-based; details: 1 uM, 30 min, 37° C.
# Text: as §1
# [3] = tested on: Lymphocytes B (CD19); assay: Flow cytometry of FITC-transporter content in primary human white blood cells: lymphocytes B; assay type: cell-based; details: 1 uM, 30 min, 37° C.
# Text: as §1
# [4] = tested on: Lymphocytes T (CD3); assay: Flow cytometry of FITC-transporter content in primary human white blood cells: lymphocytes T; assay type: cell-based; details: 1 uM, 30 min, 37° C.
# Text: as §1
# [5] = tested on: TNBS induced colitis; assay: TNBS induced colitis (IBD study); assay type: in vivo
# Description: b) Constitution of Test Groups and Dose Levels • The table below lists the experimental groups comprising the study.
# c) Test Procedures • Colitis was induced by administration of TNBS dissolved in 50% Ethanol • All animals were then treated with doses of XG-102 in the range of 0.1 to 1000 μg/kg, […], as a single or repeated daily doses (see above).
# d) Observations and Examinations • i) Clinical Signs • Throughout the duration of the above experiment, careful clinical examinations were carried out and recorded. Observations included changes external appearance, e.g. of the skin, fur, eyes, mucous membranes, occurrence of secretions and excretions (e.g. diarrhea), and autonomic activity. Changes in gait, posture and response to handling, as well as the presence of bizarre behavior, tremors, convulsions, sleep and coma were also noted. • ii) Body Weights • Determination of individual body weight of animals was made on a daily basis. • iii) Clinical Assessment of Colitis • Body weight, stool consistency and bleeding per rectum were all recorded daily and served as the parameters of disease severity score:
# • iv) Gross Pathology of the Colon • On the last day of the experiment, animals were euthanized and the colon was removed for gross pathology evaluation according to the following score: […]
# [6] = tested on: liver and lymph nodes; assay: FITC-XG-102 and FITC-D-TAT localization in liver and lymph nodes; assay type: in vivo, Sprague Dawley rat; details: 1 mg/kg i.v., 6 h post-injection
# Text: FIG. 22A and FIG. 22B: 22A: FITC-XG-102 (SEQ ID NO: 233) localization in the liver. Three cellular fields of FITC-XG-102-labelled cells isolated from liver. From left to right, FITC-labelled XG-102, corresponding DAPI nuclear stain and merge of both images. […] Typicall Kupfer cell shape and nucleus can be differentiated from hepatocytes by their shape. Small and triangle in Kupfer cells in contrast to big exagonal, well organized hepatocytes. Obj 63; bar, 20 μm. 22B: FITC-D-TAT (SEQ ID NO: 4) localization in the liver. Two cellular fields of FITC-D-TAT-labelled cells isolated from liver. From left to right, FITC-labelled XG-102, corresponding DAPI nuclear stain and merge of both images. […] Typicall Kupfer cell shape and nucleus can be differentiated from hepatocytes by their shape. Small and triangle in Kupfer cells in contrast to big exagonal, well organized hepatocytes. Obj 63; bar, 20 μm.
# (§2) FIG. 23A and FIG. 23B: 23A: FITC-XG-102 (SEQ ID NO: 233) localization in lymph nodes. Cellular field of FITC-XG-102-labelled cells isolated from lymph nodes. Upper panels from left to right: the composite image is organized with one cellular field stained with FITC-XG-102 (left), Dapi for nuclear stain (middle) and the corresponding merged image (right). In the lower panels, a zoomed cell cluster of each image is illustrated. […] The absence of FITC staining in the lymphoid follicles allows distinguishing from the medullary corde and cortex area. Medullary zone seems to have incorporated the FITC-XG-102, composed in majority by macrophages. Obj 10; bar, 50 μm.
# as §2, with “23B:” for “FIG. 23A and FIG. 23B:”, “FITC-D-TAT” for “23A: FITC-XG-102”, “4)” for “233)”, “FITC-D-TAT-labelled” for “FITC-XG-102-labelled”, “FITC-D-TAT” for “FITC-XG-102”, “FITC-D-TAT,” for “FITC-XG-102,”
# Female Sprague Dawley rat was injected i.v. in the tail with either 1 mg/kg of FITC-XG102 (SEQ ID NO:233) or 1 mg/kg FITC-D-TAT (SEQ ID NO:4). Rats were sacrified 6 h post-injection using a lethal dose of sodium pentobarbital (150 mg/kg i.p.). For histological analysis and during narcosis, rats were perfused through the heart with 4% paraformaldehyde (PFA) in PBS. Organs (liver and lymph nodes) were cryoprotected in sucrose (30% in PBS), frozen using liquid isopentane and kept for further cryostat sectioning. Sections of 14 μm were incubated for 5 min in PBS before Hoechst staining for 2 min at RT (1 μg/ml). […]
# [7] = tested on: HL-60 cell line (Leukemia); assay: Time dependant internalization of FITC-labeled TAT derived transporter constructs into HL-60 cells; assay type: cell-based; details: 10 μM; 30 min, 1, 6 or 24 hours
# Description: FIG. 3: depicts the results of the time dependant internalization (uptake) of FITC-labeled TAT derived transporter constructs into cells of the HL-60 cell line. […] HL-60 cells were incubated 30 min, 1, 6 or 24 hours with […] of the TAT-derivative transporters. The cells were then washed twice with an acidic buffer (0.2 M Glycin, 0.15 M NaCl, pH 3.0) and twice with PBS. Cells were broken by the addition of RIPA lysis buffer. The relative amount of internalized peptide was then determined by reading the fluorescence intensity (Fusion Alpha plate reader; PerkinElmer) of each extract followed by background substraction and protein content normalization. […]
# [8] = tested on: dissociated cortical primary neurons; assay: Confocal microscopy of FITC-labeled TAT derivative transporters in cortical primary neurons; assay type: cell-based, rat; details: 500 nM, 24 hours
# Description: 8.4 Internalization Experiments and Analysis • The time dependant internalization (uptake) of FITC-labeled TAT derived transporter constructs into cells of the HL-60 cell line was carried out with materials and methods as described above. • Briefly, HL-60 cells were incubated 30 min, 1, 6 or 24 hours with 10 μM of the TAT-derivative transporters. The cells were then washed twice with an acidic buffer (0.2 M Glycin, 0.15 M NaCl, pH 3.0) and twice with PBS. Cells were broken by the addition of RIPA lysis buffer. The relative amount of internalized peptide was then determined by reading the fluorescence intensity (Fusion Alpha plate reader; PerkinElmer) of each extract followed by background substraction and protein content normalization. […] The dissociated cortical primary neurons from P2 Sprague Dawley rats were cultured 12 days in neurobasal medium before exposure 24 hours to 500 nM of the FITC-labeled • TAT derivative transporters. The cells were washed five times with PBS on ice and then mounted in fluorsave mounting medium without prior fixation. Acquisitions were performed on LSM510 metaconfocal microscope (Zeiss). Images were processed with LSM510 software and mounted using Adobe photoshop. Visualization by confocal microscopy of labeling with 500 nM FITC-transporters (A: green). Nuclei were stained by Hoechst (B: blue).
# [9] = tested on: U937 lymphoma cells; assay: Uptake (internalization) of FITC-labeled TAT derived transporter constructs in U937 cells, fluorescence plate reader; assay type: cell-based; details: 10 μM, U937, Lymphoma, 24 h
# Description: Cells were plated into poly-DL-lysine coated dishes at a concentration of 1×10^6 cells/ml. Plates were then incubated for 24 h at 37° C., 5% CO2, and 100% relative humidity prior to the addition of a known concentration of peptide. After peptide addition, the cells were incubated 30 min, 1, 6 or 24 h at 37° C., 5% CO2, and 100% relative humidity. Cells were then washed twice with an acidic buffer (Glycin 0.2 M, NaCl 0.15 M, pH 3.0) in order to remove the cell-surface adsorbed peptide (see Kameyama et al., (2007), Biopolymers, 88, 98-107). […] The cell wash using an acidic buffer was thus employed to remove the cell-surface adsorbed peptides. […] Cells were broken by the addition of the RIPA lysis buffer. The relative amount of internalized peptide was then determined by fluorescence after background substraction and protein content normalization. • The steps are thus: 1. […] Analysis of peptide internalization with a fluorescence plate reader • f) Cell Culture and Peptide Treatment • (1) The 6 well culture plates are coated with 3 ml of Poly-D-Lys (Sigma P9011; 25 μg/ml in PBS), the 24 well plates with 600 μl and the 96 well plates with 125 μl and incubated for 4 h at 37° C., CO2 5% and 100% relative humidity. • (2) After 4 hours the dishes were washed twice with 3.5 ml PBS, 700 μl or 150 μl PBS for the 6, 24 or 96 well plates, respectively. • (3) The cells were plated into the dishes in 2.4 ml medium (RPMI) at plating densities of 1′000′000 cells/ml for suspension cells. After inoculation, the plates were incubated at 37° C., 5% CO2 and 100% relative humidity for 24 hours prior to the addition of the peptide. Adherent cells should be at a density of 90-95% the day of treatment and were plated in DMEM :
# • (4) The cells were treated with the desired concentration of FITC labeled peptide (stock solution at a concentration of 10 mM in H2O). • (5) Following peptide addition, the cells were incubated 0 to 24 hours (e.g. 30 min, 1, 6 or 24 hours) at 37° C., CO2 5% and 100% relative humidity. • Acidic Wash and Cellular Extracts: • (6) The extracts were cooled on ice. • Suspension cells (or cells, which don attach well to the dish): • Transfer the cells in ? […] To recover the maximum of cells, wash the dish with 1 ml of PBS. • Harvest the cells 2 min at 2400 rpm max. • Suspend the cells in 1 ml cold PBS. • Transfer the cells into a coated “Eppendorf tube” (coated with 1 ml of poly D-Lys for 4 hours and washed twice with 1 ml PBS). • Wash three times with 1 ml of cold acidic wash buffer and centrifuge 2 min at 2400 rpm max. Beware of the spreading of the cells in the “eppendorf”. • Wash twice with 1 ml cold PBS to neutralize. • Add 50 μl of lysis RIPA Buffer. • Incubate 30 min-1 h on ice with agitation. • Adherent Cells: • Wash three times with 3 ml, 1 ml or 200 μl (for 6, 24 or 96 well plates, respectively) of cold acidic wash buffer. Beware of the cells who detach from the dish. • Wash twice with 1 ml cold PBS (for 6, 24 or 96 well plates, respectively) to neutralize. • Add 50 μl of lysis RIPA buffer. • Incubate 30 min-1 h on ice with agitation. • Scrap the cells with a cold scrapper. The 24 and 96 well plates were directly centrifuged at 4000 rpm at 4° for 15 min to remove the cellular debris. Then the supernatants (100 or 50 ml respectively for the 24 or 96 well plates) were directly transferred in a dark 96 well plated.
# [10] = tested on: U937 cells; assay: Intracellular concentration of transporter constructs subsequent to uptake into U937 cells; assay type: cell-based; details: U937 cells, 10 μM construct
# Description: 9. Determination of Intracellular Concentration of Specific Transporter Constructs Subsequent to Uptake (Internalization) of these Peptides into U937 Cells • According to a further experiment, the concentration of specific transporter constructs subsequent to uptake (internalization) of these peptides into U937 cells were determined.
molecule,measurement,setting,value
FITC-βA-rKKRrQRRr [r3-L-TAT-FITC],"percentage of cells gated, lower left quadrant",[1],40.77%
same,"percentage of cells gated, lower right quadrant",[1],36.24%
same,"percentage of cells gated, upper left quadrant",[1],6.34%
same,"percentage of cells gated, upper right quadrant",[1],16.65%
same,"percentage of cells gated, lower left quadrant",[2],49.75%
same,"percentage of cells gated, lower right quadrant",[2],24.76%
same,"percentage of cells gated, upper left quadrant",[2],11.74%
same,"percentage of cells gated, upper right quadrant",[2],13.75%
same,"percentage of cells gated, lower left quadrant",[3],61.92%
same,"percentage of cells gated, lower right quadrant",[3],8.48%
same,"percentage of cells gated, upper left quadrant",[3],27.83%
same,"percentage of cells gated, upper right quadrant",[3],1.76%
same,"percentage of cells gated, lower left quadrant",[4],50.36%
same,"percentage of cells gated, lower right quadrant",[4],20.04%
same,"percentage of cells gated, upper left quadrant",[4],20.64%
same,"percentage of cells gated, upper right quadrant",[4],8.96%
"O=C(O)c1cc(/N=N/c2ccc(S(=O)(=O)Nc3ccccn3)cc2)ccc1O [Sulfasalazine, reference compound]",clinical score,"[5]; any dose, route or time schedule (single dose or daily dose)",reduction in the clinical score
same,gross pathology score,[5]; end of the study,effective in reducing the gross pathology completely
"FITC-XG-102: FITC-labelled XG-102 (SEQ ID NO: 233) ([dD][dQ][dS][dR][dP][dV][dQ][dP][dF][dL][dN][dL][dT][dT][dP][dR][dK][dP][dR][dP][dP][dR][dR][dR][dQ][dR][dR][dK][dK][dR]G; not fully specified (N-terminus, C-terminus); also: FITC label, site not given here)",localization in lymph nodes,[6],decorates subcapsular sinus macrophages and constitutive migrating alveolar macrophages
same,localization in the liver,[6],efficiently decorates Kupfer cells in contrast to hepatocytes which only show a background staining level
rRRQrRKKr [r3-L-TATi],time dependant internalization (uptake),[7],less efficient but still suitable
same,internalization seen by confocal microscopy,[8],internalized into the cytoplasm of the non stressed neurons
same,uptake (internalization),[9],most efficient
RKKRRQRRR (Description of sequence trafficking sequence L-TAT (s1a) (see Table 1)) [reference compound],intracellular concentration of transporter construct subsequent to uptake,[10]; 2 h,1.20
same,intracellular concentration of transporter construct subsequent to uptake,[10]; 4 h,1.38
same,intracellular concentration of transporter construct subsequent to uptake,[10]; 6 h,1.07
same,intracellular concentration of transporter construct subsequent to uptake,[10]; 24 h,0.5
same,time dependant internalization (uptake),[7],doesn't accumulate over a period of 24 hours
same,uptake (internalization),[9],significantly lower uptake
